US10137110B2, “1-cyclohexyl-2-phenylaminobenzimidazoles as mIDH1 inhibitors for the treatment of tumors” (Bayer Pharma Aktiengesellschaft, priority 2014, dated 2018)

What was measured:
IDH1 R132H enzyme = IDH1 R132H enzyme (Homo sapiens (Human), UniProt O75874, R132H); test: Mutant IDH1 R132H biochemical assay; details: NADPH consumption, luminescent readout; 1.5 nM enzyme, 250 μM α-KG, 1 μM NADPH, 30 minutes, 32° C.; test range 0.002-10 μM
Protocol: mIDH1 catalyzes the NADPH-dependent reduction of alpha-ketoglutarate (α-KG) to (2R)-2-hydroxyglutarate (2-HG). NADPH consumption was measured by luminescent readout.
The biochemical reactions were performed at 32° C. in 384-well plates using a reaction volume of 41 μl and the following assay buffer conditions: 50 mM Tris pH 7.5, 100 mM NaCl, 20 mM MgCl2, 0.05% BSA, 0.01% Brij, 1 μM NADPH, and 250 μM α-KG. […] Test compounds were used in a concentration range between 0.002 and 10 μM. The final DMSO concentration was 2.4%.
The reaction was incubated for 30 minutes, then 40 μl of detection mix (0.75 μg/ml Luciferase, 0.02 U/ml Oxidoreductase, 4 μg/ml FMN, 2 μl/ml Decanal/Ethanol, 50 mM Tris pH 7.5, 0.5% Glycerin, 0.01% Tween-20, 0.05% BSA) was added. Luminescence was measured on a luminescent reader (10 seconds measuring time, 1 second integration period, 30% sensitivity). The decrease in luminescence is proportional to mIDH1 activity. IC50 values are determined by interpolation from plots of relative luminescence versus inhibitor concentration.

[1] = molecular target: mutated isocitrate dehydrogenase (mIDH) protein overexpressed in LN229 R132H cells (Homo sapiens (Human), UniProt O75874, R132H); test: Mutant IDH1 cellular assay (2-HG in medium of LN229 R132H cells); type: cell-based; details: 24 hours, fluorescence readout
Protocol: Mutant IDH1 Cellular Assay
Levels of (2R)-2-hydroxyglutarate (2HG) were measured in medium of a cell line with overexpression of mutated isocitrate dehydrogenase (mIDH) protein. mIDH catalyzes the NADPH-dependent reduction of alpha-ketoglutarate to 2-HG. Cells (LN229 R132H, Mohrenz et al., Apoptosis (2013) 18:1416-1425) were grown in DMEM containing 10% FCS. They were harvested by trypsin and seeded into 96-well plates. Cells were incubated overnight at 37° C. in 5% CO2. The next day test compounds were added to each cell well. The final concentration of DMSO was 0.1% and DMSO controls were included. The plates were then placed in an incubator for 24 hours.
2-HG was measured according to Balss et al. (Acta Neuropathol (2012) 124: 883-891). Briefly, HClO4 was added to each well and the plates were centrifuged. Aliquots are removed and incubated with hydroxyglutarate dehydrogenase (HGDH), diaphorase, NAD+, and resazurin. The conversion of resazurin to resorufin was detected by fluorescence spectroscopy at Ex 540 nm Em 600 nm. The increase in fluorescence is proportional to 2-HG production. IC50 values are determined by interpolation from plots of relative fluorescence vs inhibitor concentration.

Chain of mutated isocitrate dehydrogenase (mIDH) protein overexpressed in LN229 R132H cells (O75874 whole entry R132H): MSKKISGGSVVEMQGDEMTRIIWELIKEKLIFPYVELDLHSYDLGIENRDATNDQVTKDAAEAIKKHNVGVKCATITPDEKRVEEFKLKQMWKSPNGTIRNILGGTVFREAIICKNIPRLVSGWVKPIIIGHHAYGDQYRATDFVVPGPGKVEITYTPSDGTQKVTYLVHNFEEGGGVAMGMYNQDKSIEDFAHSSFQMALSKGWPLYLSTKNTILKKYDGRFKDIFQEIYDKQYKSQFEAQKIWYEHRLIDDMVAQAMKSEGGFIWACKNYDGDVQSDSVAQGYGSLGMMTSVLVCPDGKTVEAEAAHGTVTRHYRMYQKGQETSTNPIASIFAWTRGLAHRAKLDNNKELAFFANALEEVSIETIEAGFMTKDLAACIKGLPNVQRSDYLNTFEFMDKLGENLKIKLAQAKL
Chain of IDH1 R132H enzyme (O75874 whole entry R132H): as above

SMILES	IC50 (IDH1 R132H enzyme)	IC50 [1]
Cc1nnc(-c2cc3nc(Nc4ccc(OC(F)(F)F)cc4)n(C4CC(C)(C)CC(C)(C)C4)c3cc2C)[nH]1 [Example 2-30, 6-methyl-5-(5-methyl-4H-1,2,4-triazol-3-yl)-1-(3,3,5,5-tetramethylcyclohexyl)-N-[4-(trifluoromethoxy)phenyl]-1H-benzimidazol-2-amine]	0.12 µM	1.5 µM
Cc1n[nH]c(C)c1-c1ccc2c(c1)nc(Nc1ccc(SC(F)(F)F)cc1)n2[C@H]1C[C@@H](C)CC(C)(C)C1 (stereo in doubt) [Example 2-10-2]	0.14 µM	3 µM
Cc1cc2c(cc1-c1c(C)n[nH]c1C)nc(Nc1ccc(OC(F)(F)F)cc1)n2C1CC(C)(C)CC(C)(C)C1 [Example 2-29, 5-(3,5-dimethyl-1H-pyrazol-4-yl)-6-methyl-1-(3,3,5,5-tetramethylcyclohexyl)-N-[4-(trifluoromethoxy)phenyl]-1H-benzimidazol-2-amine]	4 µM	2.7 µM
Cc1n[nH]cc1-c1ccc2c(c1)nc(Nc1ccc(OC(F)(F)F)cc1)n2[C@@H]1C[C@H](C)CC(C)(C)C1 (stereo in doubt) [Example 2-7]	0.11 µM	1.2 µM
C[C@H]1C[C@@H](n2c(Nc3ccc(SC(F)(F)F)cc3)nc3cc(-c4ccn[nH]4)ccc32)CC(C)(C)C1 (stereo in doubt) [Example 2-22]	0.77 µM	2.5 µM
Cc1n[nH]c(C)c1-c1ccc2c(c1)nc(Nc1ccc(OC(F)(F)F)cc1)n2[C@@H]1C[C@H](C)CC(C)(C)C1 (stereo in doubt) [Example 2-5]	0.09 µM	4 µM
C[C@H]1C[C@@H](n2c(Nc3ccc(OC(F)(F)F)cc3)nc3cc(-c4cnn(C)c4)ccc32)CC(C)(C)C1 (stereo in doubt) [Example 2-13]	1.1 µM	5 µM
Cc1noc(C)c1-c1ccc2c(c1)nc(Nc1ccc(C(F)(F)F)cc1)n2[C@H]1C[C@@H](C)CC(C)(C)C1 (stereo in doubt) [Example 2-23-2]	0.18 µM	10 µM
Cc1cc2c(cc1-c1cc(O)no1)nc(Nc1ccc(OC(F)(F)F)cc1)n2C1CC(C)(C)CC(C)(C)C1 [Example 2-37, 5-[6-methyl-1-(3,3,5,5-tetramethylcyclohexyl)-2-{[4-(trifluoromethoxy)phenyl]amino}-1H-benzimidazol-5-yl]-1,2-oxazol-3-ol]	0.03 µM	0.25 µM
Cc1noc(C)c1-c1ccc2c(c1)nc(Nc1ccc(OC(F)(F)F)cc1)n2[C@H]1C[C@@H](C)CC(C)(C)C1 (racemic) [Example 2-1, (±) 5-(3,5-dimethyl-1,2-oxazol-4-yl)-N-[4-(trifluoromethoxy)phenyl]-1-[(cis)-3,3,5-trimethylcyclohexyl]-1H-benzimidazol-2-amine]	0.12 µM	0.9 µM
Cc1noc(C)c1-c1ccc2c(c1)nc(Nc1ccc(SC(F)(F)F)cc1)n2[C@H]1C[C@@H](C)CC(C)(C)C1 (stereo in doubt) [Example 2-21-2]	0.29 µM	2.5 µM
Cc1n[nH]c(C)c1-c1ccc2c(c1)nc(Nc1ccc(OC(F)(F)F)cc1)n2[C@H]1C[C@@H](C)CC(C)(C)C1 (stereo in doubt) [Example 2-5-2]	1.54 µM	1.5 µM
Cc1nc(-c2ccc3c(c2)nc(Nc2ccc(OC(F)(F)F)cc2)n3C2CC(C)(C)CC(C)(C)C2)no1 [Example 2-26, 5-(5-Methyl-1,2,4-oxadiazol-3-yl)-1-(3,3,5,5-tetramethylcyclohexyl)-N-[4-(trifluoromethoxy)phenyl]-1H-benzimidazol-2-amine]	0.22 µM	10 µM
CC1(C)CC(n2c(Nc3ccc(OC(F)(F)F)cc3)nc3cc(-c4nnn[nH]4)ccc32)CC(C)(C)C1 [Example 2-28, 1-(3,3,5,5-tetramethylcyclohexyl)-5-(1H-tetrazol-5-yl)-N-[4-(trifluoromethoxy)-phenyl]-1H-benzimidazol-2-amine]	0.07 µM	0.2 µM
Cc1cc(-c2ccc3c(c2)nc(Nc2ccc(OC(F)(F)F)cc2)n3[C@@H]2C[C@H](C)CC(C)(C)C2)n(C)n1 (stereo in doubt) [Example 2-12]	0.1 µM	8 µM
C[C@H]1C[C@@H](n2c(Nc3ccc(OC(F)(F)F)cc3)nc3cc(-c4cn[nH]c4)ccc32)CC(C)(C)C1 (stereo in doubt) [Example 2-4]	0.08 µM	0.6 µM
